# Tested on: WTB
# Experiment: Trap type: clear sticky panel vs 4-unit Lindgren funnel traps baited with X
# Type: in vivo, Pityophthorus juglandis
# Conditions: for trap catches, female WTB / trap catches, male WTB: 5 mg/d, 15 ml load
# Experimental: In another set of experiments, the response of WTB to clear sticky panel traps and 4-unit Lindgren funnel traps was tested. Both were baited with 3-methyl-2-buten-1-ol (5 mg/d, 15 ml load). The clear plexiglass panel traps were coated with Stikem Special (Seabright Labs, Emeryville, Calif.). The experiment was conducted in late spring in a native riparian stand of J. hindsii at Shadow Cliffs Regional Park, Alameda Co., Calif. The pairs of traps were hung at a height of 3 m in the crowns of J. hindsii and arranged in six spatial blocks. Treatments were re-randomized among the trap stations each time that the traps were emptied (approx. weekly, after periodic WTB flights). Trap catches of males and females were normalized by the available trapping surface area for each trap type.
# Statistical Analyses. Analyses of treatment effects for the tests of trap type were performed by using Friedman's non-parametric analysis of variance or a sign test, depending on the number of treatments. (See Zar, J. H. 2010. Biostatistical Analysis. 5th ed. Pearson Prentice Hall, Englewood Cliffs, N.J.) Analysis of treatment effects for the Rain•X experiment was performed by using a Wilcoxon paired sample test. Id. Multiple comparisons for experiments with more than two treatments were performed with an a posteriori Nemenyi test with experimentwise α=0.05. Id. In all cases, male and female WTB were analyzed separately. Proportions of female WTB responding to treatments were calculated and 95% confidence intervals determined by using the Clopper-Pearson method. Id.
smiles,measurement,setting,value
"CC(C)=CCO [X, 3-methyl-2-buten-1-ol]","trap catches, female WTB",4-unit Lindgren funnel traps,160
same,"trap catches, male WTB",4-unit Lindgren funnel traps,110
same,"trap catches, female WTB",clear sticky panel traps,449
same,"trap catches, male WTB",clear sticky panel traps,216
same,proportion of females responding,funnel traps,0.59
same,proportion of females responding,sticky traps,0.67
